# From patent publication US10508085B2, “Compounds and methods for IDO and TDO modulation, and indications therefor” (Plexxikon Inc., priority 2016, dated 2019)
# Assays:
# [1] = target: T1, Human Indoleamine 2,3-dioxygenase (IDO) (Homo sapiens, UniProt P14902); test: Human IDO enzymatic assay (kynurenine level); type: biochemical; details: 6 nM IDO, 10 μM L-Trp; geometric mean; read-out: IDO1 GMean: IC50 (μM) (Biochemical Assay)
# T1 construct: His tag (N); made in house; host or cells: E. coli
# Summary of the method: (§1)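 Kynurenine formed is measured after TCA quench and 50 °C hydrolysis, with % inhibition against full-reaction and no-enzyme controls (5% DMSO). IDO: 6 nM enzyme, 10 μM L-Trp, 5 μM methylene blue, 20 min; TDO: 1 nM, 350 μM L-Trp, 0.4 μM methylene blue, 70 min; both pH 6.5, room temp, E. coli-expressed His-tagged.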
# [2] = target: T2, Human Tryptophan 2,3-dioxygenase (TDO) (Homo sapiens, UniProt P48775); test: Human TDO enzymatic assay (kynurenine level); type: biochemical; details: 1 nM TDO, 350 μM L-Trp; geometric mean; read-out: TDO GMean: IC50 (μM) (Biochemical Assay)
# T2 construct: His tag (N); made in house; host or cells: E. coli
# Summary of the method: as §1
# [3] = target: T3, human IDO (IDO1-expressing HEK293 cells) (Homo sapiens, UniProt P14902); test: Cell based kynurenine assay, IDO1-expressing HEK293 cell clones; details: IDO1-expressing HEK293 cells, 24 hours incubation; geometric mean; read-out: HEK293 IDO1 Kynurenine GMean IC50 (μM) (Cellular Assay)
# T3 construct: expressed in transfected cells
# Summary of the method: (§2)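 IC50 values come from nonlinear regression of kynurenine reduction in supernatants of human IDO1- or TDO-expressing HEK293 cells incubated 24 h with serially diluted compounds, normalised to cell and media-only controls containing 0.2% DMSO.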
# [4] = target: T4, human TDO (TDO-expressing HEK293 cells) (Homo sapiens, UniProt P48775); test: Cell based kynurenine assay, TDO-expressing HEK293 cell clones; details: TDO-expressing HEK293 cells, 24 hours incubation; geometric mean; read-out: HEK293 TDO Kynurenine GMean IC50 (μM) (Cellular Assay)
# T4 construct: expressed in transfected cells
# Summary of the method: as §2
# T3 sequence (P14902 whole entry): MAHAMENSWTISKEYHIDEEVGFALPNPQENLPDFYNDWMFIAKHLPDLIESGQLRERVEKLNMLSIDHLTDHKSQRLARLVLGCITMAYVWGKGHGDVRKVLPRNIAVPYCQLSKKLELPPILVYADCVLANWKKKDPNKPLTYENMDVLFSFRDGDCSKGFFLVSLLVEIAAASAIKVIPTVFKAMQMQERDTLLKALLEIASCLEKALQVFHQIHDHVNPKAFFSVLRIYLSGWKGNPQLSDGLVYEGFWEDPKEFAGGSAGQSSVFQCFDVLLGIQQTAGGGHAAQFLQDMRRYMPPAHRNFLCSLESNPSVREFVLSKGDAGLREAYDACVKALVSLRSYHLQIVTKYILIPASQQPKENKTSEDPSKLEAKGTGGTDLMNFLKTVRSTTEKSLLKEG
# T1 sequence (P14902 whole entry): as above
# T2 sequence (P48775 whole entry): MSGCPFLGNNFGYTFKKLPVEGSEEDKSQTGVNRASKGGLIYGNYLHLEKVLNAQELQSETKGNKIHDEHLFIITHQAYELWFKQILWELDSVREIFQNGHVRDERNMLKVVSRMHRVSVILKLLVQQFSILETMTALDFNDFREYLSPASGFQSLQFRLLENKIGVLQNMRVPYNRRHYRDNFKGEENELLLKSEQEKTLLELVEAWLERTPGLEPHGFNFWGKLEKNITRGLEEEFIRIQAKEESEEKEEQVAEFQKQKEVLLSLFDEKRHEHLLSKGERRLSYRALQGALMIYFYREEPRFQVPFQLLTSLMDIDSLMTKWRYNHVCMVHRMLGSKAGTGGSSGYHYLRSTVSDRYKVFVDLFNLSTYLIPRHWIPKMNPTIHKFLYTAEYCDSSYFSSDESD
# T4 sequence (P48775 whole entry): as above
IC50 [1] [µM],IC50 [2] [µM],IC50 [3] [µM],IC50 [4] [µM],SMILES
0.0001 to 10,0.0001 to 10,0.0001 to 10,0.0001 to 10,"CC(C)(C1CCN(C(=O)Nc2ccc(F)cc2)CC1)[C@H](O)c1cc(Cl)cc2cn[nH]c12 [Compound P-0344, (S)-4-(1-(5-chloro-1H-indazol-7-yl)-1-hydroxy-2-methylpropan-2-yl)-N-(4-fluorophenyl)piperidine-1-carboxamide]"
0.0001 to 10,0.0001 to 10,0.0001 to 10,0.0001 to 10,"NS(=O)(=O)N1CCC(C(F)(F)C(O)c2cc(Cl)cc3cn[nH]c23)CC1 (centres unmarked) [Compound P-0345, 4-(2-(5-chloro-1H-indazol-7-yl)-1,1-difluoro-2-hydroxyethyl) piperidine-1-sulfonamide]"
0.0001 to 10,0.0001 to 10,0.0001 to 10,0.0001 to 10,"NC(=O)N1CCC2(CC1)CC(O)(c1cc(Cl)cc3cn[nH]c13)C2 [Compound P-0346, 2-(5-chloro-1H-indazol-7-yl)-2-hydroxy-7-azaspiro[3.5] nonane-7-carboxamide]"
0.0001 to 10,0.0001 to 10,0.0001 to 10,0.0001 to 10,"CC(C)(C(O)c1cc(Cl)cc2cn[nH]c12)[C@H]1C[C@H]2CC[C@@H](C1)N2S(N)(=O)=O (stereo partly drawn) [Compound P-0347, (1R,3r,5S)-3-(1-(5-chloro-1H-indazol-7-yl)-1-hydroxy-2-methylpropan-2-yl)-8-azabicyclo[3.2.1] octane-8-sulfonamide]"
0.0001 to 10,0.0001 to 10,> 10,0.0001 to 10,"COC12CCC(C(O)c3cc(Cl)cc4[nH]ncc34)(CC1)CC2 (centres unmarked) [Compound P-0348, (6-chloro-1H-indazol-4-yl)(4-methoxybicyclo [2.2.2]octan-1-yl)methanol]"
0.0001 to 10,0.0001 to 10,0.0001 to 10,0.0001 to 10,"O=C(C1CCC1)N1CCC(C(F)(F)C(O)c2cc(Cl)cc3cn[nH]c23)CC1 (centres unmarked) [Compound P-0349, (4-(2-(5-chloro-1H-indazol-7-yl)-1,1-difluoro-2-hydroxyethyl)piperidin-1-yl)(cyclobutyl) methanone]"
0.0001 to 10,0.0001 to 10,0.0001 to 10,0.0001 to 10,"COCC(=O)N1CCC(C(F)(F)C(O)c2cc(Cl)cc3cn[nH]c23)CC1 (centres unmarked) [Compound P-0350, 1-(4-(2-(5-chloro-1H-indazol-7-yl)-1,1-difluoro-2-hydroxyethyl)piperidin-1-yl)-2-methoxyethan-1-one]"
0.0001 to 10,0.0001 to 10,0.0001 to 10,0.0001 to 10,"CC(C)C(=O)N1CCC(C(F)(F)C(O)c2cc(Cl)cc3cn[nH]c23)CC1 (centres unmarked) [Compound P-0351, 1-(4-(2-(5-chloro-1H-indazol-7-yl)-1,1-difluoro-2-hydroxyethyl)piperidin-1-yl)-2-methylpropan-1-one]"
10 to 100,0.0001 to 10,> 10,0.0001 to 10,"OC1(c2cc(Cl)cc3[nH]ncc23)CC2(CC2)C1 [Compound P-0352, 5-(6-chloro-1H-indazol-4-yl)spiro[2.3] hexan-5-ol]"
0.0001 to 10,0.0001 to 10,0.0001 to 10,0.0001 to 10,"CC(C)(C1CCN(C(=O)NS(=O)(=O)c2ccccc2)CC1)C(O)c1cc(Cl)cc2cn[nH]c12 (centres unmarked) [Compound P-0353, 4-(1-(5-chloro-1H-indazol-7-yl)-1-hydroxy-2-methylpropan-2-yl)-N-(phenylsulfonyl) piperidine-1-carboxamide]"
0.0001 to 10,0.0001 to 10,0.0001 to 10,0.0001 to 10,"C[C@H](NC(=O)N1CCC(C(C)(C)C(O)c2cc(Cl)cc3cn[nH]c23)CC1)c1ccccc1 (stereo partly drawn) [Compound P-0354, 4-(1-(5-chloro-1H-indazol-7-yl)-1-hydroxy-2-methylpropan-2-yl)-N-((S)-1-phenylethyl) piperidine-1-carboxamide]"
0.0001 to 10,0.0001 to 10,0.0001 to 10,0.0001 to 10,"CCCNC(=O)N1CCC(C(C)(C)C(O)c2cc(Cl)cc3cn[nH]c23)CC1 (centres unmarked) [Compound P-0355, 4-(1-(5-chloro-1H-indazol-7-yl)-1-hydroxy-2-methylpropan-2-yl)-N-propylpiperidine-1-carboxamide]"
0.0001 to 10,0.0001 to 10,0.0001 to 10,0.0001 to 10,"CC(C)(C)NC(=O)N1CCC(C(C)(C)C(O)c2cc(Cl)cc3cn[nH]c23)CC1 (centres unmarked) [Compound P-0356, N-(tert-butyl)-4-(1-(5-chloro-1H-indazol-7-yl)-1-hydroxy-2-methylpropan-2-yl)piperidine-1-carboxamide]"
0.0001 to 10,0.0001 to 10,0.0001 to 10,0.0001 to 10,"COCCCNC(=O)N1CCC(C(C)(C)C(O)c2cc(Cl)cc3cn[nH]c23)CC1 (centres unmarked) [Compound P-0357, 4-(1-(5-chloro-1H-indazol-7-yl)-1-hydroxy-2-methyipropan-2-yl)-N-(3-methoxypropyl) piperidine-1-carboxamide]"
0.0001 to 10,0.0001 to 10,0.0001 to 10,0.0001 to 10,"CC(C)(C1CCN(C(=O)Nc2cccnc2)CC1)C(O)c1cc(Cl)cc2cn[nH]c12 (centres unmarked) [Compound P-0358, 4-(1-(5-chloro-1H-indazol-7-yl)-1-hydroxy-2-methylpropan-2-yl)-N-(pyridin-3-yl)piperidine-1-carboxamide]"
0.0001 to 10,0.0001 to 10,0.0001 to 10,0.0001 to 10,"CC(C)(C1CCN(C(=O)Nc2cccc(F)c2)CC1)C(O)c1cc(Cl)cc2cn[nH]c12 (centres unmarked) [Compound P-0359, 4-(1-(5-chloro-1H-indazol-7-yl)-1-hydroxy-2-methylpropan-2-yl)-N-(3-fluorophenyl) piperidine-1-carboxamide]"
0.0001 to 10,0.0001 to 10,0.0001 to 10,0.0001 to 10,"CC(C)(C1CCN(C(=O)Nc2cccc(C#N)c2)CC1)C(O)c1cc(Cl)cc2cn[nH]c12 (centres unmarked) [Compound P-0360, 4-(1-(5-chloro-1H-indazol-7-yl)-1-hydroxy-2-methylpropan-2-yl)-N-(3-cyanophenyl) piperidine-1-carboxamide]"
0.0001 to 10,0.0001 to 10,0.0001 to 10,0.0001 to 10,"CC(C)(C1CCN(C(=O)Nc2ccc(Cl)cc2)CC1)C(O)c1cc(Cl)cc2cn[nH]c12 (centres unmarked) [Compound P-0361, 4-(1-(5-chloro-1H-indazol-7-yl)-1-hydroxy-2-methylpropan-2-yl)-N-(4-chlorophenyl) piperidine-1-carboxamide]"
0.0001 to 10,0.0001 to 10,0.0001 to 10,0.0001 to 10,"CC(C)(C1CCN(C(=O)c2cccnc2)CC1)C(O)c1cc(Cl)cc2cn[nH]c12 (centres unmarked) [Compound P-0362, (4-(1-(5-chloro-1H-indazol-7-yl)-1-hydroxy-2-methylpropan-2-yl)piperidin-1-yl)(pyridin-3-yl)methanone]"
0.0001 to 10,0.0001 to 10,0.0001 to 10,0.0001 to 10,"CC(C)(C1CCN(C(=O)c2ccc(C(F)(F)F)nc2)CC1)C(O)c1cc(Cl)cc2cn[nH]c12 (centres unmarked) [Compound P-0363, (4-(1-(5-chloro-1H-indazol-7-yl)-1-hydroxy-2-methylpropan-2-yl)piperidin-1-yl)(6-(trifluoromethyl)pyridin-3-yl)methanone]"
